Assays:
[1] = tested on: bedstraw; experiment: Test B preemergence/postemergence greenhouse plant response rating 0 to 10; format: in vivo, Galium aparine; conditions: for Plant response rating, Bedstraw: 0 to 10 scale
In short: (§1)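 Both application timings were run together: seeds got compound preemergence, and established seedlings (two to eighteen cm) got it postemergence. Non-phytotoxic solvent carried the chemical. Ratings are visual, versus controls, at twelve to sixteen days.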

[2] = tested on: cheatgrass; experiment: as above; format: in vivo, Bromus secalinus; conditions: for Plant response rating, Cheatgrass: 0 to 10 scale
In short: as §1

[3] = tested on: cocklebur; experiment: as above; format: in vivo, Xanthium pensylvanicum; conditions: for Plant response rating, Cocklebur: 0 to 10 scale
In short: as §1

[4] = tested on: cotton; experiment: as above; format: in vivo, Gossypium hirsutum; conditions: for Plant response rating, Cotton: 0 to 10 scale
In short: as §1

[5] = tested on: crabgrass; experiment: as above; format: in vivo, Digitaria spp.; conditions: for Plant response rating, Crabgrass: 0 to 10 scale
In short: as §1

[6] = tested on: giant foxtail; experiment: as above; format: in vivo, Setaria faberii; conditions: 0 to 10 scale
In short: as §1

[7] = tested on: morningglory; experiment: as above; format: in vivo, Ipomoea hederacea; conditions: 0 to 10 scale
In short: as §1

[8] = tested on: rape; experiment: as above; format: in vivo, Brassica napus; conditions: 0 to 10 scale
In short: as §1

[9] = tested on: barley; experiment: Test C preemergence/postemergence greenhouse plant response rating 0 to 100; format: in vivo, Hordeum vulgare; conditions: for Plant response rating Barley Igri: 0 to 100 scale
From the text: (§2) The compounds evaluated in this test were formulated in a non-phytoxic solvent and applied to the soil surface before plant seedlings emerged (preemergence application), to water that covered the soil surface (flood application), and to plants that were in the one-to-four leaf stage (postemergence application). A sandy loam soil was used for the preemergence and postemergence tests, while a silt loam soil was used in the flood test. Water depth was approximately 2.5 cm for the flood test and was maintained at this level for the duration of the test. Plant species in the preemergence and postemergence tests consisted of barley (Hordeum vulgare), bedstraw (Galium aparine), blackgrass (Alopecurus myosuroides), chickweed (Stellaria media), corn (Zea mays), cotton (Gossypium hirsutum), crabgrass (Digitaria sanguinalis), downy brome (Bromus tectorum), giant foxtail (Setaria faberii), lambsquarters (Chenopodium album), morningglory (Ipomoea hederacea), pigweed ([…]), rape (Brassica napus), ryegrass (Lolium multiflorum), sorghum (Sorghum bicolor), soybean (Glycine max), speedwell (Veronica persica), sugar beet (Beta vulgaris), velvetleaf (Abutilon theophrasti), wheat (Triticum aestivum), wild buckwheat (Polygonum convolvulus), and wild oat (Avena fatua). All plant species were planted one day before application of the compound for the preemergence portion-of this test. Plantings of these species were adjusted to produce plants of appropriate size for the post-emergence portion of the test. […] All plant species were grown using normal greenhouse practices. Visual evaluations of injury expressed on treated plants, when compared to untreated controls, were recorded approximately fourteen to twenty one days after application of the test compound. […] A dash (-) response means no test result.

[10] = tested on: chickweed; experiment: as above; format: in vivo, Stellaria media; conditions: for Plant response rating, Chickweed: 0 to 100 scale
From the text: as §2

[11] = tested on: cotton; experiment: as above; format: in vivo, Gossypium hirsutum; conditions: POSTEMERGENCE; for Plant response rating, Cotton: 0 to 100 scale
From the text: as §2

C#CCOc1cc(-c2nn3c(c2Br)CCCC3)c(F)cc1Cl [Compound 26]
5: Plant response rating (0 to 10 scale), Cheatgrass ([2]; POSTEMERGENCE, Rate 50 g/ha) | Plant response rating, Crabgrass ([5]; PREEMERGENCE, Rate 50 g/ha)
3: Plant response rating, Cotton ([4]; PREEMERGENCE, Rate 50 g/ha) | Plant response rating, Rape ([8]; PREEMERGENCE, Rate 50 g/ha)
80: Plant response rating (0 to 100), Chickweed ([10]; Rate 16 g/ha, POSTEMERGENCE)
40: Plant response rating Barley Igri ([9]; POSTEMERGENCE, 62 g/ha)
0: Plant response rating Barley Igri ([9]; PREEMERGENCE, 62 g/ha) | Plant response rating (0 to 100), Barley Igri ([9]; PREEMERGENCE, Rate 4 g/ha) | Plant response rating (0 to 100), Barley Igri ([9]; Rate 16 g/ha, PREEMERGENCE)
7: Plant response rating, Cheatgrass ([2]; POSTEMERGENCE, Rate 200 g/ha) | Plant response rating, Cheatgrass ([2]; Rate 200 g/ha, PREEMERGENCE)
100: Plant response rating, Chickweed ([10]; POSTEMERGENCE, 62 g/ha) | Plant response rating, Chickweed ([10]; POSTEMERGENCE, 250 g/ha) | Plant response rating, Chickweed ([10]; PREEMERGENCE, 62 g/ha) | Plant response rating, Chickweed ([10]; PREEMERGENCE, 250 g/ha) | Plant response rating, Cotton ([11]; 62 g/ha) | Plant response rating, Cotton ([11]; 250 g/ha) | Plant response rating (0 to 100), Cotton ([11]; Rate 4 g/ha)
9: Plant response rating (0 to 10 scale), Bedstraw ([1]; POSTEMERGENCE, Rate 50 g/ha) | Plant response rating, Bedstraw ([1]; POSTEMERGENCE, Rate 200 g/ha) | Plant response rating, Cocklebur ([3]; Rate 200 g/ha, PREEMERGENCE) | Plant response rating, Cotton ([4]; Rate 200 g/ha, PREEMERGENCE) | Plant response rating, Crabgrass ([5]; Rate 200 g/ha, PREEMERGENCE) | Plant response rating, Morningglory ([7]; POSTEMERGENCE, Rate 50 g/ha) | Plant response rating, Morningglory ([7]; POSTEMERGENCE, Rate 200 g/ha) | Plant response rating, Morningglory ([7]; Rate 200 g/ha, PREEMERGENCE) | Plant response rating, Rape ([8]; POSTEMERGENCE, Rate 50 g/ha)
20: Plant response rating Barley Igri ([9]; PREEMERGENCE, 250 g/ha) | Plant response rating (0 to 100), Barley Igri ([9]; Rate 4 g/ha, POSTEMERGENCE) | Plant response rating (0 to 100), Barley Igri ([9]; Rate 16 g/ha, POSTEMERGENCE)
6: Plant response rating, Cheatgrass ([2]; PREEMERGENCE, Rate 50 g/ha) | Plant response rating, Crabgrass ([5]; POSTEMERGENCE, Rate 200 g/ha) | Plant response rating, Giant foxtail ([6]; POSTEMERGENCE, Rate 200 g/ha) | Plant response rating, Giant foxtail ([6]; PREEMERGENCE, Rate 50 g/ha)
1: Plant response rating, Cocklebur ([3]; PREEMERGENCE, Rate 50 g/ha)
4: Plant response rating, Giant foxtail ([6]; POSTEMERGENCE, Rate 50 g/ha)
2: Plant response rating (0 to 10 scale), Crabgrass ([5]; POSTEMERGENCE, Rate 50 g/ha) | Plant response rating, Morningglory ([7]; PREEMERGENCE, Rate 50 g/ha)
50: Plant response rating Barley Igri ([9]; POSTEMERGENCE, 250 g/ha) | Plant response rating (0 to 100), Chickweed ([10]; PREEMERGENCE, Rate 4 g/ha) | Plant response rating (0 to 100), Chickweed ([10]; Rate 4 g/ha, POSTEMERGENCE) | Plant response rating (0 to 100), Chickweed ([10]; Rate 16 g/ha, PREEMERGENCE)
10: Plant response rating, Bedstraw ([1]; PREEMERGENCE, Rate 50 g/ha) | Plant response rating, Bedstraw ([1]; Rate 200 g/ha, PREEMERGENCE) | Plant response rating (0 to 10 scale), Cocklebur ([3]; POSTEMERGENCE, Rate 50 g/ha) | Plant response rating, Cocklebur ([3]; POSTEMERGENCE, Rate 200 g/ha) | Plant response rating (0 to 10 scale), Cotton ([4]; POSTEMERGENCE, Rate 50 g/ha) | Plant response rating, Cotton ([4]; POSTEMERGENCE, Rate 200 g/ha) | Plant response rating, Giant foxtail ([6]; Rate 200 g/ha, PREEMERGENCE) | Plant response rating, Rape ([8]; POSTEMERGENCE, Rate 200 g/ha) | Plant response rating, Rape ([8]; Rate 200 g/ha, PREEMERGENCE)

Source: patent US6358885B1, “Substituted phenylheterocyclic herbicides” (Mississippi State University, priority 1992, dated 2002)
